Experimental data as given in patent US3976770A, “Sar'-(OMe)Thr^8 Angiotensin II as an angiotensin II antagonist” (priority 1975, dated 1976).

Assays:
[1] = system: blood pressure; test: in vivo pressor response on infusion into anesthetized, vagotomized rats; details: scale set artificially at 100 for angiotensin II
Procedure: In the in vivo assays, rats were anesthetized with sodium amytal and further treated with 0.6 mg atropine and pentolinium tartrate. They were vagotomized and direct recording of the blood pressure was measured through the carotid artery, while the femoral artery was used for infusing the desired dose over a period of 30 minutes in a physiological saline solution.
The dose-response curves of angiotensin II at 0.9 to 54 ng/kg/min. were compared by linear regression analysis with those of the antagonist at doses of 1, 10, 100 and 1000 ng/kg/min. Infusion of the above antagonist into rats thus prepared led to the initial transient pressor response of 0.48 on a scale set artificially at 100 for angiotensin II using the same system.

[2] = duration of action after i.m. injection of an oil solution; type: in vivo; details: single i.m. injection, dissolved in oil
Procedure: The duration of action of the compound can be prolonged by injecting an oil solution intramuscularly. Oils suitable for this purpose are cod liver oil, sesame oil, refined coconut oil, etc. Antagonistic effects are thus observed for 24 hours or longer after a single i.m. injection of the drug dissolved in such an oil.

[3] = water solubility and storage of solution; type: physicochemical
Procedure: Since the above compound is particularly suitable for injection or infusion, it is particularly valuable that the compound is watersoluble. A suitable dosage unit can be prepared by simply dissolving the above compound in water or physiological saline at a concentration of between 50 and 6000 ng/ml. […] A commonly employed buffer for an injectable solution is Tris(hydroxymethyl) aminomethane but simple salts such as sodium phosphate or acetate can be used. Preferably, the vehicle or medium in which the compound of Formula I is dissolved for an injectable or infusable solution is buffered to a pH of 7 to 7.5.

[4] = system: pressor response of angiotensin II; test: blocking of the pressor response of angiotensin II in ganglion blocked rats; type: in vivo
Procedure: For determining its antagonistic properties the compound was infused intravenously in ganglion blocked rats at a dose level of 125, 250, 500, 1250 ng/kg/min. The blocking effect of the compound was calculated from the dose-response curve of angiotensin II before and during the infusion of the analog. General procedure adopted for this assay has been described by Bumpus et al., Circ. Res. 32-33 (Supplement I), I-150 (1973). […] The dose-ratio obtained was 62.50 ± 14.93 at a dose-level of 250 ng/kg/min.

[5] = system: acute unilateral renal hypertensive rats; test: blood pressure in acute unilateral renal hypertensive rats; type: in vivo; details: intravenous infusion

CC[C@H](C)[C@H](NC(=O)[C@H](Cc1ccc(O)cc1)NC(=O)[C@@H](NC(=O)[C@H](CCCNC(=N)N)NC(=O)CNC)C(C)C)C(=O)N[C@@H](Cc1cnc[nH]1)C(=O)N1CCC[C@H]1C(=O)N[C@H](C(=O)O)[C@@H](C)OC [Formula I, Sar'-(OMe)Thr^8 Angiotensin II]
initial transient pressor response [1]: 0.48 | duration of antagonistic effects [2]: ≥ 24 h | water solubility [3]: watersoluble | storage of solution without deterioration ([3]; solution in water or physiological saline, 50-6000 ng/ml, proper conditions): several weeks without deterioration | dose-ratio ([4]; dose-level of 250 ng/kg/min, intravenous infusion, ganglion blocked rats): 62.50 ± 14.93 | pressor effect of angiotensin II ([4]; intravenous infusion into rats in a very small amount): inhibited | dose level at which the pressor response of angiotensin II was blocked ([4]; intravenous infusion, ganglion blocked rats): ≥ 125 ng/kg/min | blood pressure [5]: capable of reducing blood pressure
